In US20240366582A1, “TREATMENT OF RAYNAUD'S DISEASE” (Aisa Pharma, Inc., priority 2020, published 2024):

Assays:
[1] = test system: Raynaud's Phenomenon (RP) attacks in participants with SSc-RP; test: Average duration of weekly RP attacks (symptomatic / all attacks), patient diary, Phase 2a Part A; assay type: in vivo, human; settings: for Average Duration of Weekly RP Attacks (All Attacks), Baseline, Mean / Average Duration of Weekly RP Attacks (All Attacks), Baseline, Median / Average Duration of Weekly RP Attacks (All Attacks), Average Duration, Mean / Average Duration of Weekly RP Attacks (All Attacks), Average Duration, Median: ITT Population-Part A; for Average Duration of Weekly RP Attacks (All Attacks), Baseline, Mean / Average Duration of Weekly RP Attacks (All Attacks), Baseline, Median: last 7 days of screening period, before dosing; for Average Duration of Weekly RP Attacks (All Attacks), Average Duration, Mean / Average Duration of Weekly RP Attacks (All Attacks), Average Duration, Median: last 7 days of the dosing period
Source text: (§1) The Sponsor-developed participant-informed E-Diary has been and will be used in this study to record data. Participants have been or will be required to keep and fill the E-Diary daily as delineated in the SoAs ((FIG. 2 and FIG. 3A and/or FIG. 3B). • The relevant metrics measured by this tool daily are: • Study medication • SSc-RP symptoms (Reporting an attack including duration of attack) • Severity of the attack considering all symptoms of the attack e.g. tingling, numbness, pain, color changes (VAS 0-10 cm scale) • Participant's location at the time of the attack (inside home/outside home) • Selecting symptoms experienced during the attack (tingling, numbness, pain, color changes, other) • Pain rating during the attack (11-point Likert scale) • The RCS based on how much difficulty participants had with Raynaud's today, how many attacks the participant had, and how long they lasted. Participants will also be asked to consider how much pain, numbness, or other symptoms the Raynaud's caused in fingers (including painful sores), and how much the Raynaud's alone affected the use of hands today (VAS 0-10 cm scale). • The relevant metrics measured by this tool at the in-clinic visit (once in a Dosing Period) are: • Digital ulcer severity (VAS 0-10 cm scale)—Applicable only if participant has digital ulcers. • Scleroderma Health Assessment Questionnaire which includes Raynaud's VAS measuring participant quality of life over the past • Note: Digital ulcer severity (VAS 0-10 cm scale) and SHAQ scale can also be done on paper in-clinic, if necessary. Also, external temperature will be a feed into the E-Diary database based on participant's location.
The absolute change in average duration of weekly RP attacks from baseline to the end of each dosing period was and will be a secondary outcome variable. The sponsor-developed participant-informed diary was and will be used to record data. Average duration of weekly RP attacks is defined as the total duration of RP attacks divided by total number of RP attacks within the last 7 days of each dosing period. Total duration of RP attacks during the last 7 days of screening period divided by the total number of RP attacks will be used as baseline for the analysis of all periods. The variable will be calculated similar to frequency data as before.
The following data was actually obtained in accordance with the protocol and plan delineated in Examples 1 and 2. The accompanying data involved 11 patients out of the planned 76 patient study. The study was done in patients with scleroderma (systemic sclerosis) who had relatively frequent Raynaud symptoms as they needed to average at least one attack per day during a screening period of up to two weeks. In this first phase of this double-blind placebo-controlled, prospective randomized study, patients were treated in parallel and after meeting study criteria were randomized to receive either placebo, cilnidipine 10 mg daily, cilnidipine 20 mg daily, tadalafil 5 mg daily, cilnidipine 10 mg plus 5 mg of tadalafil, or cilnidipine 20 mg plus 5 mg of tadalafil.

[2] = test system: Raynaud's Phenomenon (RP) attacks in participants with SSc-RP; test: Frequency of weekly RP attacks (symptomatic attacks / all attacks), patient diary, Phase 2a Part A; assay type: in vivo, human
Description: A randomized, placebo-controlled phase 2a study was performed and is in progress to assess the safety and efficacy of cilnidipine (10 mg and 20 mg) alone and in combination with 5 mg tadalafil, in participants with diagnosis of secondary Raynaud's disease.
Part A-Double-blind, Placebo-controlled, Parallel-group, Dose selection, will assess the safety and efficacy of two doses of cilnidipine (10 mg and 20 mg), alone and in combination with tadalafil. A total of 36 participants will be randomized to one of six pre-specified treatment arms. See Example 3 for data obtained in this phase of the study thus far, on 11 participants.
The Sponsor-developed participant-informed E-Diary has been and will be used in this study to record data. […]

[3] = in vivo; cited from earlier work
Nav 1.7 sodium channel = Nav 1.7 sodium channel (Homo sapiens, UniProt Q15858); settings: see WO 2021/178903; cited from earlier work
[4] = test system: Raynaud's Phenomenon (RP) attacks in participants with SSc-RP; test: Average severity of weekly RP attacks (VAS 0-10; symptomatic / all attacks), patient diary, Phase 2a Part A; assay type: in vivo, human; settings: for Average Severity of Weekly Symptomatic RP Attacks, Mean: Pooled Cilnidipine 20 mg and Cilnidipine 20 mg + Tadalafil 5 mg, severity (0-10), ITT Population - Part A
Source text: as §1
The absolute change in average severity of weekly RP attacks (VAS 0-10 cm scale) from baseline to the end of each Dosing Period was and will be a secondary outcome variable. The sponsor-developed participant-informed diary will be used to record data. […] The variable will be calculated similar to frequency data as before. […]

[5] = by Baseline RCS, first subgroup (RCS category not given)
[6] = by Baseline RCS, second subgroup (r96-r180, RCS category not given)

Chain of Nav 1.7 sodium channel (Q15858 whole entry): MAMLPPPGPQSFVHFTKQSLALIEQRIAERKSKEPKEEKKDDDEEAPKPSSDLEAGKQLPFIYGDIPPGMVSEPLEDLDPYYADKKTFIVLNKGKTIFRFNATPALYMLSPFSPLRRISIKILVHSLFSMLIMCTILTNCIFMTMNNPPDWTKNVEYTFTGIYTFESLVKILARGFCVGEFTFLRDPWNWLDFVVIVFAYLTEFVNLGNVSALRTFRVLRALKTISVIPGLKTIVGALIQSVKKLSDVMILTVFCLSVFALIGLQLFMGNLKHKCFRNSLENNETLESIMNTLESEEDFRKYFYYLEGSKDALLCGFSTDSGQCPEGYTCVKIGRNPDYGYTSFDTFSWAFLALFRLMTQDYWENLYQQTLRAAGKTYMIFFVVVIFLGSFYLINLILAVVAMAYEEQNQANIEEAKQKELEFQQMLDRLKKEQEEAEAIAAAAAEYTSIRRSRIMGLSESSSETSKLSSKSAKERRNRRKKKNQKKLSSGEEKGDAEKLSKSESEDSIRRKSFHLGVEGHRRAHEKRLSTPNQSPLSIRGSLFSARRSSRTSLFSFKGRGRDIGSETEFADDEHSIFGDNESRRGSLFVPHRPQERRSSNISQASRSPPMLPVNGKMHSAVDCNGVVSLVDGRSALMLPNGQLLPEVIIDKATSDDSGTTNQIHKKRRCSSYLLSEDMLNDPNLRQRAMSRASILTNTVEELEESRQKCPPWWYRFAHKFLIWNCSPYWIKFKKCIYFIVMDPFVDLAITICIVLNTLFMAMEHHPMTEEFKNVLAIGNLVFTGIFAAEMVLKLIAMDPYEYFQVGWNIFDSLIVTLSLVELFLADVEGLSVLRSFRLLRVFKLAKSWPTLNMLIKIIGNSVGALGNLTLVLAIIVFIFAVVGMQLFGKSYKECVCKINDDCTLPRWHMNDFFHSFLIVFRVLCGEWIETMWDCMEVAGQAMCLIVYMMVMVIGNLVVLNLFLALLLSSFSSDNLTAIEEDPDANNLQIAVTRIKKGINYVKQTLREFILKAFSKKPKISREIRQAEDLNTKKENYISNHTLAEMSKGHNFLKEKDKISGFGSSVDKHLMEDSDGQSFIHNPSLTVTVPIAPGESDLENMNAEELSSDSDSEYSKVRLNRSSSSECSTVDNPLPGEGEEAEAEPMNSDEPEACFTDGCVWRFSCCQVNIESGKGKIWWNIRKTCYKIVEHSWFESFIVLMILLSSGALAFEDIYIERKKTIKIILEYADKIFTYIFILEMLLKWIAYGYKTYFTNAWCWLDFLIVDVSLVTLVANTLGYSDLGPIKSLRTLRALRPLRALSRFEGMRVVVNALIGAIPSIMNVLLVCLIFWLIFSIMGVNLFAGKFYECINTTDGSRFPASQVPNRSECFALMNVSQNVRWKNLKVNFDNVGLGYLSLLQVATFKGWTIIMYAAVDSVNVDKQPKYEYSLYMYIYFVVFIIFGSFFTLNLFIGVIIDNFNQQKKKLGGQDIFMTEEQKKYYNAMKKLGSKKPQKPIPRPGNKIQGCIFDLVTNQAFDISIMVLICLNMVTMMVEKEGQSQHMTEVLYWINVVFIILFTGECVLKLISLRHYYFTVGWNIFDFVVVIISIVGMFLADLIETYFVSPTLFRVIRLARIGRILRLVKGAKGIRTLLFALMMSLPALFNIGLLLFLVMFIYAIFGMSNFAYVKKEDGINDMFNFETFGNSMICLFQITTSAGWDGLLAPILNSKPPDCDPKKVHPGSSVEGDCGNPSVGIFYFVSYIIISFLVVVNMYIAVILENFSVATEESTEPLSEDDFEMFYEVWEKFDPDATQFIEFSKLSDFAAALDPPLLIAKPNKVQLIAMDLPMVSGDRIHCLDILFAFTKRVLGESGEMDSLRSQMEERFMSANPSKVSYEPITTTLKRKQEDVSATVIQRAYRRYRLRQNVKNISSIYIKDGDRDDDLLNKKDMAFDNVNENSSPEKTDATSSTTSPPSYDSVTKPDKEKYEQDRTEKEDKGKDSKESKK

Compound | Average Duration of Weekly RP Attacks (All Attacks), Baseline, Mean ([1]; Excluding Outliers) | Average Duration of Weekly RP Attacks (All Attacks), Baseline, Median ([1]; Excluding Outliers) | Average Duration of Weekly RP Attacks (All Attacks), Baseline, Mean [1] | Average Duration of Weekly RP Attacks (All Attacks), Baseline, Median [1] | Average Duration of Weekly RP Attacks (All Attacks), Baseline, Mean [1, 5] | Average Duration of Weekly RP Attacks (All Attacks), Baseline, Median [1, 5] | other results
COCCOC(=O)C1=C(C)NC(C)=C(C(=O)OC/C=C/c2ccccc2)C1c1cccc([N+](=O)[O-])c1 (stereo not drawn) [Cilnidipine 10 mg] | 40.00 min | 40.00 min | 40.00 min | 40.00 min | 40.00 min | 40.00 min | 
COCCOC(=O)C1=C(C)NC(C)=C(C(=O)OC/C=C/c2ccccc2)C1c1cccc([N+](=O)[O-])c1 (stereo not drawn) [Cilnidipine 20 mg] | 17.81 min | 17.81 min | 17.81 min | 17.81 min | 17.81 min | 17.81 min | 
COCCOC(=O)C1=C(C)NC(C)=C(C(=O)OC/C=C/c2ccccc2)C1c1cccc([N+](=O)[O-])c1 (stereo not drawn) [Cilnidipine, cilnidipine, reference compound] |  |  |  |  |  |  | change in duration of Raynaud attacks (in words) ([1]; cilnidipine or cilnidipine plus tadalafil (n=7), tadalafil monotherapy (n=2)): decrease greater than that seen in placebo treated patients; patients in whom average frequency of Raynaud's attacks decreased more than 25% ([2]; all cilnidipine and cilnidipine plus tadalafil treated patients together (n=7)): 6 of 7; change in weekly frequency of Raynaud attacks (in words) ([2]; cilnidipine and cilnidipine plus tadalafil treated patients (n=7), tadalafil alone, milder and more severe disease): decrease; Tmax (time to achieve maximal plasma concentrations) [3]: 2 h; activity against the Nav 1.7 sodium channel (Nav 1.7 sodium channel): has activity; Average Severity of Weekly Symptomatic RP Attacks, Mean ([4]; Excluding Outliers): 3.40; Average Severity of Weekly Symptomatic RP Attacks, Mean [4]: 3.40; change in severity of attacks (in words) ([4]; cilnidipine monotherapy (n=3), cilnidipine plus tadalafil (n=4) vs tadalafil monotherapy (n=2)): 20 mg reducing severity more than 10 mg
COCCOC(=O)C1=C(C)NC(C)=C(C(=O)OC/C=C/c2ccccc2)C1c1cccc([N+](=O)[O-])c1 (stereo not drawn) [Pooled Cilnidipine] | 25.21 min | 25.00 min |  |  | 25.21 min | 25.00 min | Average Duration of Weekly RP Attacks (All Attacks), Average Duration, Mean ([1]; Excluding Outliers): 21.66 min; Average Duration of Weekly RP Attacks (All Attacks), Average Duration, Median ([1]; Excluding Outliers): 30.45 min; Average Duration of Weekly RP Attacks (All Attacks), Average Duration, Mean [1, 5]: 21.66 min; Average Duration of Weekly RP Attacks (All Attacks), Average Duration, Median [1, 5]: 30.45 min
CN1CC(=O)N2[C@H](c3ccc4c(c3)OCO4)c3[nH]c4ccccc4c3C[C@@H]2C1=O [Tadalafil 5 mg] | 10.92 min | 10.92 min |  |  |  |  | Average Duration of Weekly RP Attacks (All Attacks), Baseline, Mean [1, 6]: 320.46 min; Average Duration of Weekly RP Attacks (All Attacks), Baseline, Median [1, 6]: 320.46 min
CCOC(=O)C1=C(COCCN)NC(C)=C(C(=O)OC)C1c1ccccc1Cl (stereo not drawn) [amlodipine] |  |  |  |  |  |  | time to reach maximal plasma concentrations [3]: 10 h
